System: murine B16 melanoma cells
Experiment: Anti-tumor effect: tumor size / tumor volume in mice bearing subcutaneous B16 melanoma
Type: in vivo, C57BL/6 mice
Settings: for Tumor Volume (cm^3) (Mean ± SD): group mean; for PI (TV), percent inhibition of tumor volume: vs vehicle; for Tumor volumes on Day 15: Length × Width × Width/2
Procedure: The toxic effects of the dosing regimens were also monitored. […] Meanwhile 9H10 was given in two groups via i.p. on Day 3, 6 and 9. […] Tumor volume and body weight were measured every three days, and tumor weights were measured on Day 16 at the end of the study.
As per aseptic tissue culture procedures, one vial of B16 melanoma cells was removed from the liquid nitrogen stock, and placed into a 37° C. water bath. Gentle swirling was conducted until the content of the vial was thawed. Using tissue culture/sterile procedures, the cells were immediately centrifuged with a TD5A-WS centrifuge at 1000 rpm, 20-25° C., 5 min. After centrifugation, the cells were suspended in 0.1 to 0.5 mL normal saline (NS) and subcutaneously injected into 10 mice (0.1 mL/mouse, about 1×10^6 cells). After 7-10 days, when the tumor diameter was approximately 1 cm, the animals were euthanized with CO2 overdose and the tumors excised. The procedure was repeated with 20 mice to generate a sufficient number of B16 melanoma cells with adequate transplantability.
On the day of tumor implantation, approximately 1×10^6 cells in 0.1 mL were subcutaneously injected on the right axillary area of each mouse. The day of tumor implantation was defined as Day 0.
On Day 3, the animals were randomly assigned into nine different weight-matched and tumor-size-matched groups. Dosing was started on Day 3 using the regimen according to Table 2.
From Day 1 to Day 15, mortality and moribundity were checked twice daily, the body weights were recorded once every 3 days, and tumors were measured using a caliper once every 3 days. At the end of the study (Day 16), the animals were euthanized by CO2 asphyxiation, and the tumors were excised and weighed.
Based on the tumor size, the tumor volume (TV) was calculated with the formula: [TV=(Length×Width×Width)/2]. And the percent inhibition (PI) of TV (PITV) was calculated according to the equation below:
PITV(%)=(TV vehicle−TVdrug treated)/TV vehicle×100
Inter-group comparison was performed in terms of tumor volume, tumor weight and body weight, using a student's t test. P values of less than 0.05 were considered to be statistically significant.

CN(C)/N=N/c1[nH]cnc1C(N)=O [DTIC, Dacarbazine]
0.60 cm: Tumor measurements on Day 15, L (Day 15, animal F3) | Tumor measurements on Day 15, W (Day 15, animal F3) | Tumor measurements on Day 15, L (Day 15, animal F5) | Tumor measurements on Day 15, W (Day 15, animal F5)
71.15%: PI (TV), percent inhibition of tumor volume (Day 9)
0.70 cm: Tumor measurements on Day 12, L (Day 12, animal F4) | Tumor measurements on Day 12, W (Day 12, animal F4) | Tumor measurements on Day 12, L (Day 12, animal M1) | Tumor measurements on Day 12, W (Day 12, animal M1) | Tumor measurements on Day 15, L (Day 15, animal F4) | Tumor measurements on Day 15, W (Day 15, animal F4)
0.0625 cm^3: Tumor volume (Day 12, animal F1) | Tumor volumes on Day 15 (Day 15, animal F2)
0.0005 cm^3: Tumor volume (Day 9, animal M5)
0.1350 cm^3: Tumor volume (Day 12, animal F5)
0.30 cm: Tumor measurement L (length) (Day 9, animal M2) | Tumor measurement W (width) (Day 9, animal M2) | Tumor measurement L (length) (Day 9, animal M3) | Tumor measurement W (width) (Day 9, animal M3) | Tumor measurement L (length) (Day 9, animal M4) | Tumor measurement W (width) (Day 9, animal M4) | Tumor measurements on Day 12, L (Day 12, animal F2) | Tumor measurements on Day 12, W (Day 12, animal F2) | Tumor measurements on Day 12, L (Day 12, animal F3) | Tumor measurements on Day 12, W (Day 12, animal F3) | Tumor measurements on Day 12, W (Day 12, animal F5) | Tumor measurements on Day 12, L (Day 12, animal M5) | Tumor measurements on Day 12, W (Day 12, animal M5)
0.3645 cm^3: Tumor volume (Day 12, animal M2) | Tumor volumes on Day 15 (Day 15, animal M5)
0.380 ± 0.2991 cm^3: Tumor Volume (cm^3) (Mean ± SD) (Day 15)
1.20 cm: Tumor measurements on Day 15, L (Day 15, animal M2) | Tumor measurements on Day 15, W (Day 15, animal M2) | Tumor measurements on Day 15, L (Day 15, animal M4) | Tumor measurements on Day 15, W (Day 15, animal M4)
43.22%: PI (TV), percent inhibition of tumor volume (Day 12)
0.50 cm: Tumor measurements on Day 12, L (Day 12, animal F1) | Tumor measurements on Day 12, W (Day 12, animal F1) | Tumor measurements on Day 15, L (Day 15, animal F2) | Tumor measurements on Day 15, W (Day 15, animal F2)
0.1080 cm^3: Tumor volumes on Day 15 (Day 15, animal F3) | Tumor volumes on Day 15 (Day 15, animal F5)
0.5000 cm^3: Tumor volume (Day 12, animal M3) | Tumor volume (Day 12, animal M4) | Tumor volumes on Day 15 (Day 15, animal M1) | Tumor volumes on Day 15 (Day 15, animal M3)
0.90 cm: Tumor measurements on Day 12, L (Day 12, animal M2) | Tumor measurements on Day 12, W (Day 12, animal M2) | Tumor measurements on Day 15, L (Day 15, animal M5) | Tumor measurements on Day 15, W (Day 15, animal M5)
0.8640 cm^3: Tumor volumes on Day 15 (Day 15, animal M2) | Tumor volumes on Day 15 (Day 15, animal M4)
0.80 cm: Tumor measurements on Day 15, L (Day 15, animal F1) | Tumor measurements on Day 15, W (Day 15, animal F1)
0.1715 cm^3: Tumor volume (Day 12, animal F4) | Tumor volume (Day 12, animal M1) | Tumor volumes on Day 15 (Day 15, animal F4)
0.0135 cm^3: Tumor volume (Day 9, animal M1) | Tumor volume (Day 9, animal M2) | Tumor volume (Day 9, animal M3) | Tumor volume (Day 9, animal M4) | Tumor volume (Day 12, animal F2) | Tumor volume (Day 12, animal F3) | Tumor volume (Day 12, animal M5)
0.10 cm: Tumor measurement L (length) (Day 9, animal M5) | Tumor measurement W (width) (Day 9, animal M5)
0.2560 cm^3: Tumor volumes on Day 15 (Day 15, animal F1)
0.006 ± 0.0065 cm^3: Tumor Volume (cm^3) (Mean ± SD) (Day 9)
0.195 ± 0.1932 cm^3: Tumor Volume (cm^3) (Mean ± SD) (Day 12)
0.3 cm: Tumor measurements on Day 12, L (Day 12, animal F5)
48.12%: PI (TV), percent inhibition of tumor volume (Day 15)
1.00 cm: Tumor measurements on Day 12, L (Day 12, animal M3) | Tumor measurements on Day 12, W (Day 12, animal M3) | Tumor measurements on Day 12, L (Day 12, animal M4) | Tumor measurements on Day 12, W (Day 12, animal M4) | Tumor measurements on Day 15, L (Day 15, animal M1) | Tumor measurements on Day 15, W (Day 15, animal M1) | Tumor measurements on Day 15, L (Day 15, animal M3) | Tumor measurements on Day 15, W (Day 15, animal M3)

Reference: patent publication US20100267637A1, “TREATMENT OF MELANOMA WITH ALPHA THYMOSIN PEPTIDES IN COMBINATION WITH A KINASE INHIBITOR” (SciClone Pharmaceuticals, Inc., priority 2007, published 2010)
